Patent US20160340327A1, “PROCESS FOR PREPARING AMORPHOUS CABAZITAXEL” (SHILPA MEDICARE LIMITED, priority 2012, published 2016)

Legend:
[1] = Storage stability of the solid form; type: physicochemical; details: storage for longer time; no conditions or data printed
[2] = description from the drug label; cited from earlier work

In the case of CO[C@H]1C(=O)[C@@]2(C)C([C@H](OC(=O)c3ccccc3)[C@]3(O)C[C@H](OC(=O)[C@H](O)[C@H](NC(=O)OC(C)(C)C)c4ccccc4)C(C)=C1C3(C)C)[C@]1(OC(C)=O)CO[C@@H]1C[C@@H]2OC (some centres unmarked), the “stability on handling and storage (morphology and physicochemical characteristics)” value [1] is reported as “quite stable”.

For CO[C@H]1C(=O)[C@]2(C)[C@@H](OC)C[C@H]3OC[C@@]3(OC(C)=O)[C@H]2[C@H](OC(=O)c2ccccc2)[C@]2(O)C[C@H](OC(=O)[C@H](O)[C@@H](NC(=O)OC(C)(C)C)c3ccccc3)C(C)=C1C2(C)C [Cabazitaxel, (2α,5β,7β,10β,13α)-4-acetoxy-13-({(2R,3S)-3[(tert-butoxycarbonyl)amino]-2-hydroxy-3-phenylpropanoyl}oxy)-1-hydroxy-7,10-dimethoxy-9-oxo-5,20-epoxytax-11-en-2-yl benzoate], the solubility in water [2] is listed as “practically insoluble in water”.
